In patent publication US20240190871A1, “KRASG12D INHIBITOR, PREPARATION METHOD THEREFOR AND APPLICATION THEREOF” (YA THERAPEUTICS INC, priority 2021, published 2024):

Columns and labels:
[1] = tested on: ATCC CRL-1739 (KRASG^12D mutant) cells; assay: Tumor cell proliferation inhibition experiment (Cell Titer-Glo, 72 hours); assay type: cell-based; conditions: 72 hours incubation, 10% fetal bovine serum, ATP content
Experimental: The ATCC CRL-1739 (KRASG^12D mutant) cells were digested, centrifuged and resuspended, and the cell density was measured with a Scepter automatic cell counter. The cells were diluted to a solution containing 44,000 cells per milliliter, and the density-adjusted cell solution was 90 per well. Microliters were added to a 96-well culture plate. The 96-well plate was placed in a 37° C., 5% CO2 incubator. After the cells were cultured for 24 hours, different concentrations of the compounds to be tested were added. The cells were incubated with the compounds for 72 hours in the presence of 10% fetal bovine serum. Glo Luminescent Cell Viability Assay Kit (see manufacturer's instructions for details) was used to measure ATP content to assess cell growth inhibition. Briefly, 30 μl of Cell Titer-Glo reagent was added to each well, and the plate was shaken for 10 minutes to induce cell lysis. FluoroskanAscentFL (Thermo) assay records the […], and the maximum signal value is obtained from cells treated with DMSO for 72 hours. The minimum signal value was obtained from the medium alone (the number of cells was zero), and the % inhibition rate=(the maximum signal value compound signal value)/(the maximum signal value−the minimum signal value×100%, and the data were processed using Graphpadprism 5 software. By sigmoid Dose-response curve fitting to calculate IC50 value. “A” means IC50≤50 nM; “B” means 50<IC50≤500 nM; “C” means 500<IC50≤2000 nM; “D” means 2000<IC50

KRAS-G2D/SOS1 = KRAS-G2D/SOS1 (Homo sapiens, UniProt P01116, G12D); assay: KRAS-G2D/SOS1 binding experiment (HTRF); conditions: His-tagged G12D protein and Tag1-SOS protein, room temperature
Sequence of KRAS-G2D/SOS1 (P01116 1-188 isoform P01116-2 G12D): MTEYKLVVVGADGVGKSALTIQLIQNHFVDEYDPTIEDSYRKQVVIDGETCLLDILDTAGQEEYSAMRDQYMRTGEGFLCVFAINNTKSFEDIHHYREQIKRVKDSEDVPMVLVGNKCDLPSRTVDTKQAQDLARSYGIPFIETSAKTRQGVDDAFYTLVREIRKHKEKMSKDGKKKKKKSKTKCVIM
Experimental: • A) Dilute Tagged-His Tag G12D protein and Tag1-SOS protein with diluent at 1:100, and use detection buffer for anti-Tag1-Tb3+ antibody and anti-Tag2-XL665 at 1:100 or 1:25, respectively Dilute. • B) Dilute the compound to be tested with diluent starting from […] concentration, 4 times gradient, a total of 6 concentration gradients, and dilute to 10× stock solution. • C) In a 96-well plate, add 4 uL Tagged-His Tag G12D protein, 4 uL Tag1-SOS protein, 2 ul dilution solution (positive control) or test compound (different concentrations of 10× stock solution) to each well in sequence, a total of 10 ul, and incubate at room temperature for […], add pre-mixed 5 uL anti-Tag1-Tb3+ and 5 uL anti-Tag2-xL665, seal the plate, incubate at room temperature for 2 hours, and read the HTRF signal with a TECAN INFINITEF NANO+ microplate reader.
The ratio of […] and donor excitation signals for each single well was calculated using the formula ratio=665 nm signal value/620 nm signal value×[…]. Data were processed using Graphpadprism5 software. IC50 values were calculated by sigmoidal dose-response curve fitting.

SMILES | IC50 [1] [nM] | IC50 (KRAS-G2D/SOS1) [nM]
C[C@@H]1CNCCN1c1nc(OC[C@@H]2CCCN2C)nc2nc(-c3c(O)cccc3F)c(F)cc12 [Compound 7, 3-fluoro-2-(6-fluoro-4-((R)-2-methylpiperazin-1-yl)-2-(((S)-1-methylpyrrolidin-2-yl)methoxy)pyrido [2,3-d]pyrimidin-7-yl)phenol] | > 2000 | > 500
Oc1cc(-c2nc3nc(OC[C@@]45CCCN4C[C@H](F)C5)cc(N4C[C@H]5CC[C@@H](C4)N5)c3cc2F)c2c(F)cccc2c1 [Compound 57, 4-(5-((1R,5S)-3,8-diazabicyclo[3.2.1]octan-3-yl)-3-fluoro-7-(((2R,7aS)-2-fluorohexahydro-1H-pyrrolizin-7a-yl)methoxy)-1,8-naphthyridin-2-yl)-5-fluoronaphthalen-2-ol] | ≤ 50 | ≤ 50
Oc1cc(-c2nc3nc(OC[C@@]45CCCN4C[C@H](F)C5)nc(N4C5CNCC4C5)c3cc2F)c2c(F)cccc2c1 [Compound 54, 4-(4-(3,6-diazabicyclo [3.1.1]heptan-6-y1)-6-fluoro-2-(((2R,7aS)-2-fluorohexahydro-1H-pyrrolizin-7a-yl)methoxy)pyrido[2,3-d]pyrimidin-7-y1)-5-fluoronaphthalen-2-ol] | ≤ 50 | ≤ 50
C[C@@H]1CNCCN1c1nc(NCCN(C)C)nc2nc(-c3c(O)cccc3F)c(F)cc12 [Compound 1, 2-(2-((2-(dimethylamino)ethyl)amino)-6-fluoro-4-((R)-2-methylpiperazin-1-yl)pyrido[2,3-d]pyrimidin-7-yl)-3-fluorophenol] | > 2000 | > 500
C#Cc1c(F)ccc2cc(O)cc(-c3nc4nc(OC[C@@]56CCCN5C[C@H](F)C6)nc(N5C[C@H]6CC[C@@H](C5)N6)c4cc3F)c12 [Compound 58, 4-(4-((1R,5S)-3,8-diazabicyclo[3.2.1]octan-3-yl)-6-fluoro-2-(((2R,7aS)-2-fluorotetrahydro-1H-pyrrolizin-7a(5H)-yl)methoxy)pyrido[2,3-d]pyrimidin-7-yl)-5-ethynyl-6-fluoronaphthalen-2-ol] | ≤ 50 | ≤ 50
CN1CCC[C@H]1COc1nc(N2C3CNCC2C3)c2cc(F)c(-c3cc(O)cc4cccc(Cl)c34)nc2n1 [Compound 47, 4-(4-(3,6-diazabicyclo[3.1.1]heptan-6-yl)-6-fluoro-2-(((S)-1-methylpyrrolidin-2-yl)methoxy)pyrido [2,3-d]pyrimidin-7-yl)-5-chloronaphthalen-2-ol] | 50 to 500 | 

Results, then the compound that gave them:

IC50 [1] [nM] | IC50 (KRAS-G2D/SOS1) [nM] | SMILES
≤ 50 | ≤ 50 | C[C@@H]1CNCCN1c1nc(OC[C@@H]2CCCN2C)nc2nc(-c3cc(O)cc4cccc(F)c34)c(F)cc12 [Compound 46, 5-fluoro-4-(6-fluoro-4-((R)-2-methylpiperazin-1-yl)-2-(((S)-1-methylpyrrolidin-2-yl)methoxy)pyrido [2,3-d]pyrimidin-7-yl)naphthalen-2-ol]
> 2000 | ≤ 50 | C[C@@H]1CNCCN1c1nc(OC[C@@H]2CCCN2C)nc2nc(-c3cc(O)cc4ccccc34)c(F)cc12 [Compound 36, 4-(6-fluoro-4-((R)-2-methylpiperazin-1-yl)-2-(((S)-1-methylpyrrolidin-2-yl)methoxy)pyrido [2,3-d]pyrimidin-7-yl)naphthalen-2-ol]
50 to 500 | ≤ 50 | C[C@@H]1CNCCN1c1nc(OC[C@@H]2CCCN2C)nc2nc(-c3cc(O)cc4cccc(Cl)c34)c(F)cc12 [Compound 45, 5-chloro-4-(6-fluoro-4-((R)-2-methylpiperazin-1-yl)-2-(((S)-1-methylpyrrolidin-2-yl)methoxy)pyrido [2,3-d]pyrimidin-7-yl)naphthalen-2-ol]
50 to 500 | 50 to 500 | C[C@@H]1CNCCN1c1nc(OC[C@@H]2CCCN2C)nc2nc(-c3cccc4cccc(F)c34)c(F)cc12 [Compound 33, 6-fluoro-7-(8-fluoronaphthalen-1-y1)-4-((R)-2-methylpiperazin-1-y1)-2-(((S)-1-methylpyrrolidin-2-yl)methoxy)pyrido [2,3-d]pyrimidine]
500 to 2000 | 50 to 500 | C[C@@H]1CNCCN1c1nc(OC[C@@H]2CCCN2C)nc2nc(-c3cccc4cccc(Cl)c34)c(F)cc12 [Compound 34, 7-(8-chloronaphthalen-1-yl)-6-fluoro-4-((R)-2-methylpiperazin-1-yl)-2-(((S)-1-methylpyrrolidin-2-yl)methoxy)pyrido [2,3-d]pyrimidine]
